From ChEMBL document CHEMBL1123968, “Isoprenoid (phosphinylmethyl)phosphonates as inhibitors of squalene synthetase” (J Med Chem, 1988)

Target: T1, Squalene synthase (Rattus norvegicus, UniProt Q02769)
T1 sequence (Q02769 whole entry): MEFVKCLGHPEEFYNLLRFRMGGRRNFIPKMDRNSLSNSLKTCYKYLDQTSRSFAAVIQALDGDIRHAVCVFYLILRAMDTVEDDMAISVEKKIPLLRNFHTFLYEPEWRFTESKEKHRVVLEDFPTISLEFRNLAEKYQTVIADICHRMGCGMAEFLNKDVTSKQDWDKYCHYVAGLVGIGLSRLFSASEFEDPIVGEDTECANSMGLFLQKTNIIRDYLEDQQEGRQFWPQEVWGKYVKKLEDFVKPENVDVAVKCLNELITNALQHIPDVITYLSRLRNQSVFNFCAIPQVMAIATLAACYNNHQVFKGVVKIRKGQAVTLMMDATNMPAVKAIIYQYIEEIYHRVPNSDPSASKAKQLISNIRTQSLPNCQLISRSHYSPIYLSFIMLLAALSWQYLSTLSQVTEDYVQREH
Test: Inhibition of squalene synthetase was determined in rat liver microsomes
Parameters: species or system Microsome
Settings: read-out: I50

With `CC(C)=CCC/C(C)=C/CC/C(C)=C/CCCP(=O)(O)CP(=O)(O)O` the IC50 was 67 µM.

Work on `CC(C)=CCC/C(C)=C/CC/C(C)=C/CCP(=O)(O)C(F)(F)P(=O)(O)O` yielded an IC50 of 29.9 µM.

In the case of `CC(C)=CCC/C(C)=C/CC/C(C)=C/C=C/P(=O)(O)C(F)(F)P(=O)(O)O`, the IC50 is reported as 15.5 µM.

Work on `COP(=O)(O)CP(=O)(O)CC/C=C(\C)CC/C=C(\C)CCC=C(C)C` yielded an IC50 of 177 µM.

With `CC(C)=CCC/C(C)=C/CC/C(C)=C/C=C/P(=O)(O)CP(=O)(O)O` the IC50 was 12.2 µM.

In the case of `CC(C)=CCC/C(C)=C/CC/C(C)=C/CCP(=O)(O)CP(=O)(O)O`, the IC50 is reported as 31.5 µM.

With `CC(C)=CCC/C(C)=C/CC/C(C)=C/CCP(=O)(O)OP(=O)(O)O` the IC50 was 42 µM.
